Data from patent US20100197588A1, “USE OF A PEPTIDE AS A THERAPEUTIC AGENT” (priority 2007, published 2010).
Where no end group is shown, it is not given here.

Assays:
HIV-1IIIB = experiment: HIV-1 antiviral assay in CEM-SS cells (MTS readout)
HCMV strain AD169 = experiment: HCMV plaque formation assay in MRC-5 cells
HUVEC = experiment: Endothelial tube formation assay; settings: 10 micrograms per ml, 20 hours, combination peptide 1:peptide 2 0.95 mole:1.05 mole
Method: The endothelial tube formation assay is based on the ability of endothelial cells to form three-dimensional capillary-like tubular structures when cultured on a gel of basement membrane extract. […] Pre-labeled HUVEC with Calcein AM were seeded in a 96-well culture plate coated with extracellular metrix (Chemicon international Cat. ECM625) and treated with test peptides—10 micrograms per ml—in full growth medium. Positive control was vehicle only. The endothelial cells were allowed to form tubes for 20 hours and were then examined under an inverted fluorescent microscope. Duplicate wells for each treatment were photographed and quantitatively analyzed for an average tubule length using image analysis software ImageProPlus. Raw data were expressed as average tubule lengths in pixels ±standard deviation. Statistic p values were computed using the Student's t-test.

A549 cells = experiment: Apoptosis prevention assay (C2 ceramide, Annexin-5); settings: 10 micrograms per ml, 30 min pretreatment, then C2 ceramide, combination 0.95 mole peptide 1 and 1.05 mole peptide 2
Method: Human A549 cells (carcinomic human alveolar basal epithelial cells) were utilized in the experiments employing the Annexin-5 apoptosis assay. […] A549 cells were pretreated for 30 min with test peptides—10 micrograms per ml—followed by the exposure to C2 ceramide.

[1] = system: hepatitis B virus (HBV) ayw strain; experiment: HBV experimental assay system, secreted HBV DNA by TaqMan PCR in HepG2-2.2.15 cells; assay type: cell-based; settings: 10 micrograms per ml, six days
Excerpt: HepG2-2.2.15 is a stable cell line containing the hepatitis B virus (HBV) ayw strain genome (ATCC Cat. No. CRL-11997). Antiviral compounds blocking any late step of viral replication such as transcription, translation, pregenome encapsidation, reverse transcription, particle assembly and release can be identified and characterized using this cell line. In this assay, an active compound will reduce the production of secreted HBV from cells, measured by utilizing real time quantitative PCR (TaqMan) assay to directly and accurately measure HBV DNA copies.
HepG2-2.2.15 cells were plated in 96-well microtiter plates. After 16-24 hours the confluent monolayer of HepG2-2.2.15 cells was washed and the medium was replaced with complete medium containing test peptides—10 micrograms per ml—in duplicate. […] Six days following the initial administration of the peptides, the cell culture supernatants was collected, treated with pronase and DNAse and then used in a real-time quantitative TaqMan PCR assay. The PCR-amplified HBV DNA was detected in real-time by monitoring increases in fluorescence signals that result from the exonucleolytic degradation of a quenched fluorescence probe molecule that hybridizes to the amplified HBV DNA. […] Antiviral activity was calculated from the reduction in HBV DNA levels (% virus control). […]

[2] = system: Human Peripheral Blood Mononuclear Cells (PBMC), B cell proliferation; experiment: B cell proliferation assay (SAC plus Interleukin-2 stimulated PBMC, 3H-thymidine); settings: 10 micrograms per ml, 3 days
Method: Human Peripheral Blood Mononuclear Cells (PBMC) were obtained from normal human donors. The B cell proliferation was induced by stimulation of the cells with the B cell mitogen Staphylococcus aureus Cowans I (SAC) plus Interleukin-2, either in the absence (positive proliferation control), or in the presence of test peptides—10 micrograms per ml—to examine their effects on the B cell response. 10^5/well PBMC were plated in 96-well microtiter plates and assayed in duplicate with the peptides. […] At the end of incubation time, the plates were harvested and the cells counted by liquid scintillation for the incorporation of ^3H-thymidine as a measure of B cell proliferation.

Interleukin-5 (IL-5) = experiment: Th1/Th2 cytokine profiling assay, IL-5; settings: 10 micrograms per ml; Ovalbumin-restimulated Balb/c spleen cells, 72 hours
Excerpt: (§1) The Balb/c mice (originated in 1923, it is a popular strain and is used in many different research disciplines. Also classified as an inbred from the production of 20 or more successive brother-sister matings, the Balb/c mouse is albino and small in size) were immunized on Days 1, 15, and 29 with Ovalbumin (Ovalbumin is the main protein found in egg white, commonly used to stimulate an immunological reaction in test animals) in PBS (5 micrograms/injection). On day 50, spleens of the mice were harvested (3 weeks after last boost with Ovalbumin). […] Thereafter, additional Ovalbumin was added to the cells at 10 micrograms/ml for in vitro restimulation of the cells. 72 hours later, cell supernatants were harvested and assayed using the Becton Dickinson Mouse Th1/Th2 Cytokine CBA Kit. This kit can be used to measure Interleukin-2 (IL-2), Interleukin-4 (IL-4), Interleukin-5 (IL-5), Interferon-γ (IFN-γ), and Tumor Necrosis Factor-α (TNF-α) protein levels in a single sample.

Interferon-γ (IFN-γ) = experiment: Th1/Th2 cytokine profiling assay, IFN-γ; settings: 10 micrograms per ml; Ovalbumin-restimulated Balb/c spleen cells, 72 hours
Excerpt: (§2) The Balb/c mice (originated in 1923, it is a popular strain and is used in many different research disciplines. Also classified as an inbred from the production of 20 or more successive brother-sister matings, the Balb/c mouse is albino and small in size) were immunized on Days 1, 15, and 29 with Ovalbumin (Ovalbumin is the main protein found in egg white, commonly used to stimulate an immunological reaction in test animals) in PBS (5 micrograms/injection). On day 50, spleens of the mice were harvested (3 weeks after last boost with Ovalbumin). […] Thereafter, additional Ovalbumin was added to the cells at 10 micrograms/ml for in vitro restimulation of the cells. 72 hours later, cell supernatants were harvested and assayed using the Becton Dickinson Mouse Th1/Th2 Cytokine CBA Kit. This kit can be used to measure Interleukin-2 (IL-2), Interleukin-4 (IL-4), Interleukin-5 (IL-5), Interferon-γ (IFN-γ), and Tumor Necrosis Factor-α (TNF-α) protein levels in a single sample. The kit performance has been optimized for analysis of physiologically relevant concentrations (μg/ml levels) of specific cytokine proteins in tissue culture supernatants and serum samples.

Interleukin-2 (IL-2) = experiment: Th1/Th2 cytokine profiling assay, IL-2; settings: 10 micrograms per ml; Ovalbumin-restimulated Balb/c spleen cells, 72 hours
Excerpt: as §1

[3] = system: Primary Human endothelial cells (HUVEC); experiment: Endothelial cell migration assay; settings: 10 micrograms per ml, 22 hours
Method: Primary Human endothelial cells (HUVEC) were seeded in insert chambers with 3 micrometer pore size of multi-transwell plate for 6 hours at 37° C. in Endothelial Cell Basal Medium (EBM) supplemented with 0.1% bovine serum albumin. Thereafter, designated concentration of testing peptides—10 micrograms per ml—was added in duplicate wells. The endothelia were allowed to migrate for 22 hours at 37° C., then, migrated cells were fixed and stained with Hoechst 33342 dye. Images of 3 fields per insert were taken and the number of migrated cells per field were quantified using the ImageProPlus software. Data were analyzed for the average number of the migrated cells and standard deviation of six data points for each treatment condition. […] Statistic p values were computed using the Student's t-test.

Interleukin-4 (IL-4) = experiment: Th1/Th2 cytokine profiling assay, IL-4; settings: 10 micrograms per ml; Ovalbumin-restimulated Balb/c spleen cells, 72 hours
Excerpt: as §1

[4] = system: Tumor Necrosis Factor-α (TNF-α); experiment: Th1/Th2 cytokine profiling assay, TNF-α; settings: 10 micrograms per ml; Ovalbumin-restimulated Balb/c spleen cells, 72 hours
Excerpt: as §2

Compound	antiviral activity of positive control compounds (HIV-1) (HIV-1IIIB)	antiviral activity of positive control compound (HCMV) (HCMV strain AD169)	induction of the tube formation of human endothelial cells (HUVEC) [%]	induction of the ceramide-induced apoptosis on human lung cells (A549 cells)	inhibition of HBV replication as compared to the virus control infection [1]	induction of the proliferation of specifically stimulated human B-cells [2]	IL-5 spleen cells; TH2 response (% of control) (Interleukin-5 (IL-5))	IFNγ spleen cells; TH1 response (% of control) (Interferon-γ (IFN-γ))	IL-2 spleen cells (% of control) (Interleukin-2 (IL-2))	induction of the migration of endothelial cells [3] [%]	IL-4 spleen cells; TH2 response (% of control) (Interleukin-4 (IL-4))	TNF-a spleen cells; TH1 response (% of control) [4]	inhibition of the migration of endothelial cells ([3]; combination peptide 1:peptide 2 0.95 mole:1.05 mole) [%]
Cc1cn([C@H]2C[C@H](N=[N+]=[N-])[C@@H](CO)O2)c(=O)[nH]c1=O [AZT]	expected levels of antiviral activity												
Nc1nc(O)c2ncn(COC(CO)CO)c2n1 [Ganciclovir]		expected levels of antiviral activity											
CC(C)(C)NC(=O)[C@@H]1CN(Cc2cccnc2)CCN1C[C@@H](O)C[C@@H](Cc1ccccc1)C(=O)N[C@H]1c2ccccc2C[C@H]1O [indinavir]	expected levels of antiviral activity												
Ac-Met-Trp-Asp-Phe-Asp-Asp-Leu-Asn-Phe-Thr-Gly-Met-Pro-Pro-Ala-Asp-Glu-Asp-Tyr-Ser-Pro-NH2 (Ac-MWDFDDLNFTGMPPADEDYSP-NH2) [peptide 2]			32	19.65%	no effect	does not show any induction	59.3 % of control	59.2 % of control	63.0 % of control	9	136.3 % of control	90.3 % of control	
His-Ser-Asp-Gly-Ile-Phe-Thr-Asp-Ser-Tyr-Ser-Arg-Tyr-Arg-Lys-Gln-Met-Ala-Val-Lys-Lys-Tyr-Leu-Ala-Ala-Val-Leu-Gly-Lys-Arg-Tyr-Lys-Gln-Arg-Val-Lys-Asn-Lys-NH2 (HSDGIFTDSYSRYRKQMAVKKYLAAVLGKRYKQRVKNK-NH2) [peptide 1]			36	did not induce	48.0%	23.3%	63.0 % of control	60.8 % of control	0.0 % of control		120.1 % of control	94.0 % of control	6
